Read-outs that look alike come from different tables or passages of the source.
Key:
[1] = tested on: wild-type (WT) MDCK cells; experiment: MDR1-MDCK effective efflux assay (Transwell, 10 μM, 1 hour), wild-type MDCK cells; type: in vitro ADME; conditions: for WT ER: MDCK; for Papp AB WT: wild-type MDCK cells, apical to basolateral (A>B), 10 μM, 1 hour
How it was run: (§1)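 Wild-type and MDR1-MDCK monolayers cultured 3 days were dosed with compound at 10 μM (0.1% DMSO) in HBSS/25 mM HEPES pH 7.4, in both A>B and B>A directions, for 1 h at 37 °C. Samples were quantified by LC-MS/MS to give Papp and efflux ratio. Effective efflux ratio = ER(MDR1-MDCK)/ER(wild-type); Lucifer Yellow checked monolayer integrity.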

[2] = as above; type: in vitro ADME; conditions: dog, MDCK
How it was run: as §1

[3] = pH 7.4, wild-type MDCK cells, apical to basolateral (A>B), 10 μM, 1 hour, read-out: Papp AB WT

| Compound | WT ER [1] | Papp A→B at 1 h, 10 μM ([2]; pH 7.4, Papp AB WT) [nm/s] | Papp A→B at 1 h, 10 μM [2, 3] [nm/s] | also measured |
| --- | --- | --- | --- | --- |
| COC(=O)N1Cc2cc(Cl)ccc2-n2c(C3CC4(C3)CN(c3ncccn3)C4)nnc2C1C (centres unmarked) [compound 166] | +++ | > 200 | – | – |
| CC(C)OC(=O)N1Cc2cc(Cl)ccc2-n2c(C3CC4(C3)CN(c3ncccn3)C4)nnc2C1C (single isomer, unassigned) [Cpd 167A] | – | – | – | Papp AB WT [1]: ++++ ((++++) denotes >20 (10^-6 cm/sec)) |
| CN1Cc2cc(Cl)ccc2-n2c(nnc2C2CC3(C2)CN(c2ccc(F)cn2)C3)C1 [compound 1, 8-chloro-1-(2-(5-fluoropyridin-2-yl)-2-azaspiro[3.3]heptan-6-yl)-5-methyl-5,6-dihydro-4H-benzo[f][1,2,4]triazolo[4,3-a][1,4]diazepine] | ++ | > 200 | – | – |
| CCOC(=O)N1Cc2cc(Cl)ccc2-n2c(C3CC4(C3)CN(c3ncccn3)C4)nnc2C1C (single isomer, unassigned) [Cpd 168A] | – | – | – | Papp AB WT [1]: ++++ ((++++) denotes >20 (10^-6 cm/sec)) |
| O=C(C1CC1)N1CC2(CC(c3nnc4n3-c3ccc(Cl)cc3CN(C(=O)C3(F)CC3)C4)C2)C1 [compound 136] | + | 100 to 200 | – | – |
| CCOC(=O)N1Cc2cc(Cl)ccc2-n2c(C3CC4(C3)CN(c3ncc(F)cn3)C4)nnc2C1C (centres unmarked) [compound 172] | ++++ | > 200 | – | – |
| COC(=O)N1Cc2cc(Cl)ccc2-n2c(nnc2C2CC3(C2)CN(c2ccccn2)C3)C1 [compound 70] | – | – | > 200 | – |
| FC(F)CN1Cc2cc(Cl)ccc2-n2c(nnc2C2CC3(C2)CN(c2ccccn2)C3)C1 [compound 52] | – | – | > 200 | – |
| CC(C)OC(=O)N1Cc2cc(Cl)ccc2-n2c(C3CC4(C3)CN(c3ncc(F)cn3)C4)nnc2C1C (single isomer, unassigned) [Cpd 201A] | – | – | – | Papp AB WT [1]: ++++ ((++++) denotes >20 (10^-6 cm/sec)) |
| CC(C)OC(=O)N1Cc2cc(Cl)ccc2-n2c(C3CC4(C3)CN(c3ncccn3)C4)nnc2C1C (centres unmarked) [compound 167] | +++ | > 200 | – | – |
| CC1c2nnc(C3CC4(C3)CN(c3ccc(F)cn3)C4)n2-c2ccc(Cl)cc2CN1C(=O)OC1CC1 (single isomer, unassigned) [Cpd 191A] | – | – | – | Papp AB WT [1]: ++++ ((++++) denotes >20 (10^-6 cm/sec)) |
| CC1c2nnc(C3CC4(C3)CN(c3ncccn3)C4)n2-c2ccc(Cl)cc2CN1C(=O)OC(CF)CF (single isomer, unassigned) [Cpd 202A] | – | – | – | Papp AB WT [1]: ++++ ((++++) denotes >20 (10^-6 cm/sec)) |
| COC(=O)N1Cc2cc(Cl)ccc2-n2c(C3CC4(C3)CN(c3cnccn3)C4)nnc2C1C (single isomer, unassigned) [Cpd 165A] | – | – | – | Papp AB WT [1]: ++++ ((++++) denotes >20 (10^-6 cm/sec)) |
| CC1c2nnc(C3CC4(C3)CN(c3ccc(F)cn3)C4)n2-c2ccc(Cl)cc2CN1C(=O)C1(F)CC1 (single isomer, unassigned) [Cpd 174A] | – | – | – | Papp AB WT [1]: ++++ ((++++) denotes >20 (10^-6 cm/sec)) |
| O=C(C(F)F)N1Cc2cc(Cl)ccc2-n2c(nnc2C2CC3(C2)CN(c2ccccn2)C3)C1 [compound 122] | – | – | > 200 | – |
| CCOC(=O)N1Cc2cc(Cl)ccc2-n2c(C3CC4(C3)CN(c3ccc(F)cn3)C4)nnc2C1C (centres unmarked) [compound 169] | – | – | > 200 | – |
| CC1c2nnc(C3CC4(C3)CN(c3ccccn3)C4)n2-c2ccc(Cl)cc2CN1C(=O)C1(F)CC1 (single isomer, unassigned) [Cpd 181A] | – | – | – | Papp AB WT [1]: ++++ ((++++) denotes >20 (10^-6 cm/sec)) |
| CC(=O)N1Cc2cc(Cl)ccc2-n2c(nnc2C2CC3(C2)CN(c2ccc(F)cn2)C3)C1 [compound 64] | – | – | 100 to 200 | – |
| COC(=O)N1Cc2cc(Cl)ccc2-n2c(C3CC4(C3)CN(c3ncc(F)cn3)C4)nnc2C1C (centres unmarked) [compound 170] | ++++ | > 200 | – | – |
| Clc1ccc2c(c1)CN(C1CC1)Cc1nnc(C3CC4(C3)CN(c3ccccn3)C4)n1-2 [compound 56] | – | – | > 200 | – |
| CC(CF)OC(=O)N1Cc2cc(Cl)ccc2-n2c(nnc2C2CC3(C2)CN(c2ccc(F)cn2)C3)C1 (centres unmarked) [compound 78] | – | – | > 200 | – |
| CCC(=O)N1Cc2cc(Cl)ccc2-n2c(nnc2C2CC3(C2)CN(c2ccc(F)cn2)C3)C1 [compound 72] | – | – | > 200 | – |
| CCOC(=O)N1Cc2cc(Cl)ccc2-n2c(C3CC4(C3)CN(c3ncccn3)C4)nnc2C1C (centres unmarked) [compound 168] | +++ | > 200 | – | – |
| CC(C)C(=O)N1Cc2cc(Cl)ccc2-n2c(nnc2C2CC3(C2)CN(c2ccc(F)cn2)C3)C1 [compound 63] | – | – | > 200 | – |

| Compound | WT ER [1] | Papp A→B at 1 h, 10 μM ([2]; pH 7.4, Papp AB WT) [nm/s] | Papp A→B at 1 h, 10 μM [2, 3] [nm/s] | also measured |
| --- | --- | --- | --- | --- |
| CC1c2nnc(C3CC4(C3)CN(c3ncccn3)C4)n2-c2ccc(Cl)cc2CN1C(=O)OC1CC1 (centres unmarked) [compound 171] | ++++ | > 200 | – | – |
| FCCN1Cc2cc(Cl)ccc2-n2c(nnc2C2CC3(C2)CN(c2ccccn2)C3)C1 [compound 59] | – | – | > 200 | – |
| CC1c2nnc(C3CC4(C3)CN(c3ncc(F)cn3)C4)n2-c2ccc(Cl)cc2CN1C(=O)OC(CF)CF (centres unmarked) [compound 194] | ++++ | 100 to 200 | – | – |
| CC1c2nnc(C3CC4(C3)CN(c3cnccn3)C4)n2-c2ccc(Cl)cc2CN1C(=O)C1(F)CC1 (centres unmarked) [compound 177] | +++ | > 200 | – | – |
| CC1c2nnc(C3CC4(C3)CN(c3ncc(F)cn3)C4)n2-c2ccc(Cl)cc2CN1C(=O)OC1(C)CC1 (centres unmarked) [compound 173] | – | – | > 200 | – |
| O=C(N1Cc2cc(Cl)ccc2-n2c(nnc2C2CC3(C2)CN(c2cnccn2)C3)C1)C1(F)CC1 [compound 81] | +++ | > 200 | – | – |
| CC(C)OC(=O)N1Cc2cc(Cl)ccc2-n2c(nnc2C2CC3(C2)CN(C(=O)C2CC2)C3)C1 [compound 153] | ++ | > 200 | – | – |
| COC(=O)N1Cc2cc(Cl)ccc2-n2c(C3CC4(C3)CN(c3ccc(F)cn3)C4)nnc2C1C (centres unmarked) [compound 142, methyl 8-chloro-1-(2-(5-fluoropyridin-2-yl)-2-azaspiro[3.3]heptan-6-yl)-4-methyl-4H-benzo[f][1,2,4]triazolo[4,3-a][1,4]diazepine-5(6H)-carboxylate] | ++++ | > 200 | – | – |
| Clc1ccc2c(c1)CN(C1COC1)Cc1nnc(C3CC4(C3)CN(c3ccccn3)C4)n1-2 [compound 57, 8-chloro-5-(oxetan-3-yl)-1-(2-(pyridin-2-yl)-2-azaspiro[3.3]heptan-6-yl)-5,6-dihydro-4H-benzo[f][1,2,4]triazolo[4,3-a][1,4]diazepine] | +++ | > 200 | – | – |
| CN1Cc2cc(Cl)ccc2-n2c(nnc2C2CC3(C2)CN(c2cccc(F)n2)C3)C1 [compound 8] | ++++ | > 200 | – | – |
| COC(=O)N1Cc2cc(Cl)ccc2-n2c(C3CC4(C3)CN(c3cnccn3)C4)nnc2C1C (centres unmarked) [compound 165] | – | – | > 200 | – |
| CC(C)C(=O)N1Cc2cc(Cl)ccc2-n2c(nnc2C2CC3(C2)CN(c2ccccn2)C3)C1 [compound 71] | ++++ | > 200 | – | – |
| CC1c2nnc(C3CC4(C3)CN(c3ncc(F)cn3)C4)n2-c2ccc(Cl)cc2CN1C(=O)OC1CC1 (single isomer, unassigned) [Cpd 192A] | – | – | – | Papp AB WT [1]: ++++ ((++++) denotes >20 (10^-6 cm/sec)) |
| CCOC(=O)N1Cc2cc(Cl)ccc2-n2c(C3CC4(C3)CN(c3ccc(F)cn3)C4)nnc2C1C (single isomer, unassigned) [Cpd 169A] | – | – | – | Papp AB WT [1]: ++++ ((++++) denotes >20 (10^-6 cm/sec)) |
| CC1c2nnc(C3CC4(C3)CN(c3ccc(F)cn3)C4)n2-c2ccc(Cl)cc2CN1C(=O)C(C)(C)F (single isomer, unassigned) [Cpd 178A] | – | – | – | Papp AB WT [1]: ++++ ((++++) denotes >20 (10^-6 cm/sec)) |
| CC1c2nnc(C3CC4(C3)CN(c3ccc(F)cn3)C4)n2-c2ccc(Cl)cc2CN1C(=O)C1(F)CC1 (centres unmarked) [compound 174] | – | – | > 200 | – |
| CCC(=O)N1Cc2cc(Cl)ccc2-n2c(nnc2C2CC3(C2)CN(c2ccccn2)C3)C1 [compound 67] | +++ | > 200 | – | – |
| O=C(OC1CC1)N1Cc2cc(Cl)ccc2-n2c(nnc2C2CC3(C2)CN(c2ccc(F)cn2)C3)C1 [compound 90] | – | – | > 200 | – |
| COC(=O)N1Cc2cc(Cl)ccc2-n2c(C3CC4(C3)CN(c3ncccc3F)C4)nnc2C1C (centres unmarked) [compound 182] | – | – | > 200 | – |
| CC1c2nnc(C3CC4(C3)CN(c3ncccn3)C4)n2-c2ccc(Cl)cc2CN1C(=O)OC1CC1 (single isomer, unassigned) [Cpd 171A] | – | – | – | Papp AB WT [1]: ++++ ((++++) denotes >20 (10^-6 cm/sec)) |
| O=C(OC(CF)CF)N1Cc2cc(Cl)ccc2-n2c(nnc2C2CC3(C2)CN(c2ccc(F)cn2)C3)C1 [compound 79] | – | – | > 200 | – |
| COC(=O)N1Cc2cc(Cl)ccc2-n2c(nnc2C2CC3(C2)CN(c2ccc(F)cn2)C3)C1 [compound 61] | – | – | > 200 | – |
| COC(=O)N1Cc2cc(Cl)ccc2-n2c(C3CC4(C3)CN(c3cccc(C)n3)C4)nnc2C1C (centres unmarked) [compound 180] | – | – | > 200 | – |
| CCOC(=O)N1Cc2cc(Cl)ccc2-n2c(nnc2C2CC3(C2)CN(c2ccc(F)cn2)C3)C1 [compound 69] | – | – | > 200 | – |

From patent publication US11186577B2, “Vasopressin receptor antagonists and products and methods related thereto” (BlackThorn Therapeutics, Inc., priority 2017, dated 2021)
